{
  "source": "patent US20190269702A1",
  "about": "“COMPOSITIONS AND METHODS FOR TREATING NONINFECTIOUS UVEITIS” (CLEARSIDE BIOMEDICAL, INC., priority 2018, published 2019)",
  "tested_on": "treatment-naïve DME eyes",
  "assay_type": "in vivo, human",
  "procedure": "A study was conducted to evaluate suprachoroidal CLS-TA in combination with intravitreal aflibercept, compared to aflibercept monotherapy for DME. SCS injections target chorioretinal tissues more directly than intravitreal injections while limiting exposure to the anterior chamber, thereby offering potential safety, efficacy, and durability advantages. The study was a Phase 2, multicenter, randomized, double-masked, controlled, 24-week study in treatment-naïve DME eyes (eligibility: CST >300 μm; 20-70 ETDRS letters) randomized 1:1 to CLS-TA+aflibercept or aflibercept monotherapy. Patients in the combination arm (n=36) received CLS-TA and aflibercept at baseline & week 12 ([…]). Patients in the monotherapy arm (n=35) received aflibercept at baseline, W4, W8 and […]. […] The study is referred to as the TYBEE study in some embodiments herein.",
  "data": [
    {"substance": "aflibercept", "values": [
      {"measurement": "eyes with macular edema resolved (<300 μm)", "setting": "W4", "result": 21, "unit": "%"},
      {"measurement": "mean CST change", "setting": "W24", "result": "−176", "unit": "μm"},
      {"measurement": "gain in BCVA letters from baseline", "setting": "W24, per protocol arms", "result": "+13.5 letters"},
      {"measurement": "mean PRN aflibercept treatments", "setting": "at W16 & W20", "result": 0.7},
      {"measurement": "cataract observed", "setting": "in vivo", "result": 2.9, "unit": "%"},
      {"measurement": "elevated IOP observed", "setting": "in vivo", "result": 2.9, "unit": "%"},
      {"measurement": "treatment-related serious AEs", "setting": "in vivo", "result": "No treatment-related serious AEs were observed"},
      {"measurement": "average number of treatments", "setting": "through week 24", "result": 4.7}
    ]}
  ]
}
